Data from publication PMC8246084, “Mapping the binding site topology of amyloid protein aggregates using multivalent ligands” (Chemical Science, 2021).
Like-named read-outs stand apart in the source and are kept apart here.

What was measured:
tau fibrils (htau 0N4R) = biological target: T1, tau fibrils (htau 0N4R) (Homo sapiens, UniProt P10636); assay: Fluorescence titration with tau fibrils; details: monodisperse BTA dimers; 0.5 μM tau; PBS 1× pH 7.4, 298 K; errors at 95% confidence limit; read-out: Dissociation constant (Kd) for binding to tau fibrils
T1 construct: purchased InVivo BioTech Services GmbH, Germany

Aβ42 fibrils = biological target: T2, Aβ42 fibrils (Homo sapiens, UniProt P05067); assay: Fluorescence titration with Aβ42 fibrils; details: monodisperse BTA dimers; 0.5 μM Aβ42; PBS 1× pH 7.4, 298 K; errors at 95% confidence limit; read-out: Dissociation constant (Kd) for binding to Aβ42 fibrils
T2 construct: monomeric amyloid-b1-42; purchased Stratech A-1167-2-RPE

α-synuclein fibrils = α-synuclein fibrils (Homo sapiens, UniProt P37840); assay: Fluorescence titration with α-synuclein fibrils; format: binding
[1] = biological target: T3, α-synuclein aggregates (LB509/pS129-positive Lewy bodies) (Homo sapiens, UniProt P37840); assay: Staining of brain sections from patients with Parkinson's disease; details: compound 100 nM
T3 construct: tissue Cambridge Brain Bank; host or cells: post-mortem human brain sections, Parkinson's disease, substantia nigra
Description: (§1) Brain sections from patients with Parkinson's disease were labelled with antibodies against α-synuclein (LB509 and pS129) and stained with compounds 13, 14 and 15 (Fig. 8a). LB509/pS129-positive Lewy bodies, that were identified as cytoplasmic spheres, were stained by both compounds 14 and 15 but not by compound 13. […] To assess any potential cross-reactivity with other pathological amyloid aggregates, such as Aβ plaques and neurofibrillary tangles of tau, brain sections from patients with Alzheimer's disease were labelled with antibody against tau (dako tau) and Aβ (4G8) and stained with compounds 13, 14 and 15 (Fig. 8b).
(§2) Fig. 8 Fluorescence microscope images of human brain sections. (a) Sections from patients with Parkinson's disease labelled with antibodies against α-synuclein (LB509 and pS129) and stained with compounds 13, 14 and 15 (100 nM). (b) Sections from patients with Alzheimer's disease labelled with antibodies against tau (dako tau) and Aβ (4G8) and stained with compounds 13, 14 and 15 (1 μM). Scale bar 20 μm.
(§3) Frozen brain tissues from neuropathologically confirmed cases of PD and AD were obtained from the Cambridge Brain Bank (Table S3). Tissue blocks were post-fixed in 4% paraformaldehyde and cryoprotected before snap freezing in OCT. Brain sections (15 μm) were generated using a cryostat (Bright OTF5000) for immunohistochemistry and compound staining.
(§4) Table S3. Details of human tissue used (SN substantia nigra, FL frontal lobe) Case no Diagnosis Braak Stage Brain region Age
9. Immunohistochemistry and Staining
Fixed brain sections were washed with 70% EtOH and allowed to air dry for 20 min before incubation overnight at 4°C with either a mixture of monoclonal antibodies for α-syn (1:500, ab27766, Abcam) and pS129 α-syn (1:500, ab51253, Abcam) for PD sections or a mixture of monoclonal antibody for Aβ (1:500, 800701, Biolegend) and polyclonal antibody for human tau (1:500, A002401-2, Agilent) for AD sections. Sections were washed with PBS 3 x 15 min and incubated for 3 h at room temperature in secondary antibody, either a mixture of goat anti- […]
A11011, ThermoFisher) for PD sections or a mixture of goat anti-mouse ALEXA-647 (1:1000, A21235, ThermoFisher) and goat anti-rabbit ALEXA-546 (1:1000, A11035, ThermoFisher) for AD sections. Compounds 13, 14 and 15 were also diluted in the secondary antibody preparation at stated concentrations. Sections were washed with PBS 3 x 10 min and once with 70% EtOH 5 min before blocking autofluorescence with Autofluorescence Inhibitor (2160, Millipore) for 5 min. After 3 x 1 min washes in 70% EtOH sections were mounted using Fluorosave mounting medium (345789, Millipore). Fluorescence images were taken using a Leica DMI4000B.

[2] = biological target: α-synuclein sonicated fibrils (Homo sapiens, UniProt P37840); assay: TIRFM imaging of α-synuclein aggregates in vitro; details: nanomolar 15 (4 nM, 200 nM) vs 5 μM ThT; fibrils from 200 nM monomer
Description: The highest affinity BTA dimers were investigated as fluorescence imaging agents for protein aggregates. Fig. 7 compares in vitro imaging of α-synuclein aggregates with 15 and with thioflavin T (ThT). ThT is widely used to image aggregates, because it has a very low fluorescence emission intensity in the free state, and there is a large increase in fluorescence emission on binding to protein aggregates. The corresponding change in fluorescence emission intensity is much lower for the BTA dimers described here (see Fig. 3).
Fig. 7 TIRFM images of α-synuclein sonicated fibrils in the presence of (a) 4 nM 15, (b) 200 nM 15 and (c) 5 μM ThT. Fibrils were obtained from 200 nM samples of the monomer. All images have the same contrast. Scale bar 10 μm.
7. Total internal reflection fluorescence microscopy (TIRFM) imaging
Imaging was performed using a homebuilt total internal reflection fluorescence microscope as reported previously.7 Briefly, this imaging mode restricts detectable axial fluorescence signal to within ~200 nm from the glass-water interface. […] Fluorescence was collected by the same objective and was separated from the returning TIR beam by a dichroic (Di01-R405/488/561/635, Semrock), and passed through […]
respectively). The images were recorded on an EMCCD camera (Evolve 512, Photometrics) operating in frame transfer mode (EMGain of 11.5 e−/ADU and 250 ADU/photon). […]

[3] = biological target: Tau-positive neuronal inclusions (Homo sapiens, UniProt P10636); assay: Staining of brain sections from patients with Alzheimer's disease (tau); details: compound 1 μM
Description: as §1, §2, §3, §4
(§5) 9. Immunohistochemistry and Staining […]
(§6) A11011, ThermoFisher) for PD sections or a mixture of goat anti-mouse ALEXA-647 (1:1000, A21235, ThermoFisher) and goat anti-rabbit ALEXA-546 (1:1000, A11035, ThermoFisher) for AD sections. […] Fluorescence images were taken using a Leica DMI4000B.

[4] = test system: 4G8-positive extracellular plaques (Aβ); assay: Staining of brain sections from patients with Alzheimer's disease (Aβ); design: species or system human; details: compound 1 μM
Description: as §1, §2, §3, §4, §5, §6

[5] = Solubility for fluorescence titrations in PBS; format: physicochemical; details: PBS 1× titration conditions
Description: Eqn (1)–(3) can be fit to the two sets of titration data in Fig. 3 to determine the dissociation constant Kd and brightness (ef) of the free and bound BTA dimer, and in the case of high affinity binding, the concentration of binding sites on the protein fibrils. In all cases, the titration data fit well to a 1 : 1 binding isotherm, and the lines shown in Fig. 3 are the calculated lines of best fit.
Fluorescent titrations with the polydisperse mixtures of BTA dimers were used to measure the apparent binding affinities for α-synuclein fibrils in the same way as described above for the monodisperse BTA dimers. The titration data fit well to a 1 : 1 binding isotherm allowing for the fluorescence emission from the free dye as described above, and the results are summarised in Table 2. […] The dissociation constants for the other polydisperse BTA dimers are in the same range as those measured for the monodisperse analogues. […]
5. Fluorescence titrations […]
The fluorescence spectra were analysed using a Microsoft Excel spreadsheet to fit the changes in fluorescence intensity at fixed wavelengths to a 1:1 binding isotherm by optimizing the association constant, the optical brightness of the free and bound guest, and the concentration of protein binding sites using purpose written VBA macros. […]
Figure S25. Fluorescence titration of compound 14. […]
Figure S26. Fluorescence titration of compound 15. […]

[6] = monodisperse BTA dimers, 1 μM α-synuclein, PBS 1× pH 7.4, 298 K, errors at 95% confidence limit, read-out: Dissociation constant (Kd) for binding to α-synuclein fibrils

T1 sequence (P10636 1-383 isoform P10636-6): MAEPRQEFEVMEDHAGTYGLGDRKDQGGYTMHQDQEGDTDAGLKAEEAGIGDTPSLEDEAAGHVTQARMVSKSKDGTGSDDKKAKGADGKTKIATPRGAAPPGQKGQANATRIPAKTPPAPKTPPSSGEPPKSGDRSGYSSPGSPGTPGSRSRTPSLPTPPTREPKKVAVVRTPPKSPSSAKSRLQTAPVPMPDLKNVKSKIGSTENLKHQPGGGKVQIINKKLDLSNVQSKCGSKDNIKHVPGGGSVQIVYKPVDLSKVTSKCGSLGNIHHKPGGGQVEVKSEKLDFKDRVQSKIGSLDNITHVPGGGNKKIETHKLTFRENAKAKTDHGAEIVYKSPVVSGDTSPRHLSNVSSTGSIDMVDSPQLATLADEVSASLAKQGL
Chain of Tau-positive neuronal inclusions (P10636 623-708 limits assumed): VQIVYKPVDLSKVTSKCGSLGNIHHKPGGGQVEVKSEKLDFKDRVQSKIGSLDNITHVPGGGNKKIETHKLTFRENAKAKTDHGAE
T2 sequence (P05067 672-713 limits assumed): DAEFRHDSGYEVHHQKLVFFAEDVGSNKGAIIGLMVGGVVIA

SMILES	Kd (tau fibrils (htau 0N4R))	Kd (Aβ42 fibrils)	Kd (α-synuclein fibrils; [6])	Kd (α-synuclein fibrils; monomeric BTA analogue, fluorescence titration, read-out: Kd for α-synuclein (binding affinity too low to measure))	Staining of LB509/pS129-positive Lewy bodies [1]	Image brightness compared with ThT [2]	Staining of tau-positive neuronal inclusions [3]	Solubility (sufficient to determine accurate dissociation constants) [5]	Co-localisation with α-synuclein antibodies elsewhere in the brain section [1]	Staining of 4G8-positive extracellular plaques [4]
COCCOCCOCCOc1ccc2nc(-c3ccc(N(C)C)cc3)sc2c1 [monomeric BTA analogue]	–	–	–	> 1 µM	–	–	–	–	–	–
CN(C)c1ccc(-c2nc3ccc(OCCOCCOCCOc4ccc5nc(-c6ccc(N(C)C)cc6)sc5c4)cc3s2)cc1 [Compound 13]	–	–	–	–	not	–	no staining	not sufficiently soluble	–	no staining
CN(C)c1ccc(-c2nc3ccc(OCCOCCOCCOCCOCCOCCOc4ccc5nc(-c6ccc(N(C)C)cc6)sc5c4)cc3s2)cc1 [Compound 14]	0.9 ± 0.7 µM	1.4 ± 1.6 µM	0.19 ± 0.14 µM	–	stained	–	no staining	–	significant amounts of co-localisation	no staining

Further lines, with some results ahead:

Kd (tau fibrils (htau 0N4R))	Kd (Aβ42 fibrils)	Kd (α-synuclein fibrils; [6])	Kd (α-synuclein fibrils; monomeric BTA analogue, fluorescence titration, read-out: Kd for α-synuclein (binding affinity too low to measure))	Staining of LB509/pS129-positive Lewy bodies [1]	Image brightness compared with ThT [2]	Staining of tau-positive neuronal inclusions [3]	Solubility (sufficient to determine accurate dissociation constants) [5]	Co-localisation with α-synuclein antibodies elsewhere in the brain section [1]	SMILES	Staining of 4G8-positive extracellular plaques [4]
0.11 ± 0.057 µM	0.007 ± 0.005 µM	0.035 ± 0.015 µM	–	–	–	–	–	–	CN(C)c1ccc(-c2nc3ccc(OCCOCCOCCOCCOCCOCCOCCOCCOCCOCCOCCOCCOCCOCCOCCOc4ccc5nc(-c6ccc(N(C)C)cc6)sc5c4)cc3s2)cc1 [Compound 16]	–
0.28 ± 0.048 µM	0.32 ± 0.075 µM	0.21 ± 0.18 µM	–	–	–	–	–	–	CN(C)c1ccc(-c2nc3ccc(OCCOCCOCCOCCOCCOCCOCCOCCOCCOCCOCCOCCOCCOCCOCCOCCOCCOCCOCCOCCOCCOc4ccc5nc(-c6ccc(N(C)C)cc6)sc5c4)cc3s2)cc1 [Compound 17]	–
1 ± 0.3 µM	0.078 ± 0.026 µM	0.0027 ± 0.0015 µM	–	stained	brighter	no staining	–	–	CN(C)c1ccc(-c2nc3ccc(OCCOCCOCCOCCOCCOCCOCCOCCOCCOc4ccc5nc(-c6ccc(N(C)C)cc6)sc5c4)cc3s2)cc1 [Compound 15]	no staining
